These results are taken from publication PMC10487658, “Identification and Characterization of RK22, a Novel Antimicrobial Peptide from Hirudinaria manillensis against Methicillin Resistant Staphylococcus aureus” (International Journal of Molecular Sciences, 2023).

No end group written: not given here.

For one data set, the system named is mouse red blood cells. Kind of data set: Hemolysis assay. To be noted: up to 400 μg/mL, 37 °C, 1 h, absorbance 540 nm, 1% Triton X-100 = 100%, 3 independent experiments. In kind it is cell-based. On the procedure:
The hemolysis and cytotoxicity assays were performed according to previous research with some modifications. In the hemolysis assay, mouse blood was collected in anticoagulant tubes, centrifuged (1000× g, 5 min), and washed with normal saline three times to obtain red blood cells. The red blood cells were then resuspended to prepare a 10% red blood cell suspension. The suspension was mixed with an equal volume solution of RK22 (final concentration 0–400 μg/mL), then incubated at 37 °C for 1 h and centrifuged (1000× g, 10 min). After this, 150 μL of the supernatant was transferred to a new 96-well plate, with absorbance then measured at 540 nm. Additionally, 1% Triton X-100 and sterile saline treatment groups accounted for 100% and 0% hemolysis, respectively.
Supplementary Figures and Figure legends
Figure S1. […] After incubation for 60 min at 37°C, cells were centrifuged (3,500 rpm, 5 min) and the absorbance of the supernatant was measured at 540 nm. The value for “zero hemolysis” was determined using sterile saline (negative control, NC), while 100% hemolysis was established using 1% (v/v) Triton X-100 (PC: positive control). Hemolysis of testing sample was calculated as the percentage of Triton X-100-induced hemolysis. […] Cell viability was determined by adding 10 μl CCK8 in to the cells and incubated for 1-4 h. The absorbance at 450 nm of the solution was measured with a microplate reader. […]

In data set [1] the test system is MRSA-Z (clinically isolated methicillin-resistant S. aureus). Kind of data set: microbe, parasite or virus in culture. In kind it is cell-based, Staphylococcus aureus. To be noted: -Z (clinically isolated methicillin-resistant). On the procedure:
(§1) The bacterial strains used in this study included Pseudomonas aeruginosa (P. aeruginosa, ATCC27853), Acinetobacter baumannii (A. baumannii, ATCC19606), Escherichia coli (E. coli, ATCC8739), and S. aureus (ATCC6538, two clinically isolated strains (SA220823 and SA15772)), and three clinically isolated methicillin-resistant strains (MRSA-Z, MRSA11, and MRSA22). All strains were grown in Luria-Bertani (LB) broth.
(§2) The minimum inhibitory concentration (MIC) for all strains was determined using the […] assay based on a previous study with minor modifications. Initially, strains in the exponential phase were diluted to a concentration of 2 × 10^5 CFU/mL using RPMI 1640 medium (Corning, New York, NY, USA). Next, 100 μL of the bacterial suspension was mixed with 100 μL of the sample solution (final concentration 0–200 μg/mL in RPMI 1640 medium) in 96-well plates. The plates were then incubated at 37 °C for 12–16 h. After incubation, the absorbance at 600 nm was measured, and the MIC was determined as the lowest concentration of the test sample in which no bacterial growth was detected in the well.

The subject of data set [2] is SA15772 (clinically isolated S. aureus). Kind of data set: microbe, parasite or virus in culture. The class given is cell-based, Staphylococcus aureus. To be noted: SA15772 (clinically isolated). The method, then:
as §1, §2

A further data set deals with S. aureus (ATCC6538). The data set can be described thus: microbe, parasite or virus in culture. In kind it is cell-based, Staphylococcus aureus. On the procedure:
as §1, §2

Data set [3] has as its system MRSA22 (clinically isolated methicillin-resistant S. aureus). The data set can be described thus: microbe, parasite or virus in culture. The class given is cell-based, Staphylococcus aureus. The settings on record: MRSA22 (clinically isolated methicillin-resistant). The method, then: as §1, §2
Data set [4] deals with MRSA11 (clinically isolated methicillin-resistant S. aureus). The data set can be described thus: microbe, parasite or virus in culture. In kind it is cell-based, Staphylococcus aureus. To be noted: MRSA11 (clinically isolated methicillin-resistant). On the procedure:
as §1, §2

Data set [5] deals with SA220823 (clinically isolated S. aureus). The data set can be described thus: microbe, parasite or virus in culture. In kind it is cell-based, Staphylococcus aureus. The settings on record: SA220823 (clinically isolated). On the procedure: as §1, §2
The subject of another data set is MRSA-Z. In kind it is in vitro ADME, Staphylococcus aureus. The method, then:
We determined the stability of RK22 in plasma according to the previously reported method. Briefly, an equal volume of RK22 was mixed with human plasma and diluted to a concentration of 5 mg/mL. The MICs of RK22 against S. aureus ATCC6538 and methicillin-resistant S. aureus MRSA-Z were determined after incubation at 37 °C for different times (0, 2, 4, 6, 8, and 10 h).

Take RKYKEKKDKSQNKKKKRKCMIL [RK22]: the hemolytic activity entry in the data set with mouse red blood cells is on record as “did not exhibit any obvious hemolytic activity”. The MIC was found to be 6.25 µg/mL in data set [1]; 12.5 µg/mL in data set [2]; 6.25 µg/mL against S. aureus (ATCC6538); 6.25 µg/mL in data set [3]; 6.25 µg/mL in data set [4]; 12.5 µg/mL in data set [5]. Also, the “MIC after incubation in plasma” value against MRSA-Z was found to be 6.25 µg/mL.
